Assay results reported in patent publication US20240197750A1, “CEFTIBUTEN DOSING REGIMENS” (QPEX Biopharma, Inc., priority 2021, published 2024).

Legend:
[1] = Pharmacokinetics of single and multiple oral doses of ceftibuten in healthy adult subjects; assay type: in vivo, human; conditions: for dose proportionality of exposure (Cmax, AUC0-12, AUC0-∞): doses of 400, 600 and 800 mg of ceftibuten
Procedure: (§1) A double-blind, randomized, placebo-controlled, sequential ascending single- and multiple dose study of ceftibuten in healthy adult subjects was conducted. There were four cohorts of 10 subjects each who received both single and multiple oral doses (8 active and 2 placebo).
Dose proportionality was examined graphically and using an ANOVA test of the dose-normalized Cmax, AUC0-12 and AUC0-∞ values. […] The AUC0-12 exposure of cis-ceftibuten is shown in FIG. 1 and the AUC0-12 exposure of trans-ceftibuten is shown in FIG. 2, showing that increases were dose proportional.

[2] = system: 99 strains of Enterobacterales; assay: Resistance development study: mutant prevention concentration (MPC) of Compound 1 with ceftibuten; assay type: cell-based
Procedure: 99 strains of Enterobacterales were used in resistance development studies using ceftibuten at 1 or 2 μg/ml in combination with various concentrations of the following β-lactamase inhibitor:
Compound 1 is described in PCT Publication No. WO 2018/005662, which is incorporated herein by reference in its entirety. Concentrations of Compound 1 included 1, 2, 4 and 8 μg/ml. The goal of the study was to identify the concentration of Compound 1 (MPC, mutant prevention concentration) that will prevent appearance of mutants at two different concentrations of ceftibuten.

[3] = Safety of single and multiple ascending oral doses of ceftibuten in healthy adult subjects; assay type: in vivo
Procedure: as §1
The event of nausea occurred in one subject in the SAD period following single administration of ceftibuten and the event of […] occurred in one subject in the MAD period following administration of the ceftibuten. […] The nausea was considered to be moderate in severity and diarrhea considered to be mild in severity with both events deemed by the investigator to be related to the study drug. The nausea persisted from Day 1 dose (SAD) until after Day 4 morning dose (MAD), despite treatment with concomitant medications. […] The incidence of treatment-related TEAEs was similar in the 400 mg (1 [12.5%] of 8 subjects) and 600 mg (2 [25.0%] of 8 subjects) ceftibuten and Pooled Placebo groups (3 [37.5%] of 8 subjects). […] The highest incidence was reported in the highest ceftibuten dose (800 mg). The most common gastrointestinal TEAEs in the 800 mg group during the MAD period were nausea in 4 out of 16 subjects (25.0%), diarrhea in 4 of 16 (25.0%), abdominal pain in 3 of 16 (18.8%), upper abdominal pain in 3 of 16 (18.8%) and abdominal discomfort in 2 of 16 subjects (12.5%). Most Gastrointestinal Disorder TEAEs were transient and mild in severity with no intervention required. […] All events were asymptomatic, resolved spontaneously after the completion of study treatment, and were not associated with elevations of alkaline phosphatase or bilirubin. • There was no trend in abnormalities that were NCS in hematology, coagulation, or urinalysis parameters.

[4] = multiple oral doses 400 mg ceftibuten BID
[5] = multiple oral doses 600 mg ceftibuten BID
[6] = multiple oral doses 800 mg ceftibuten BID
[7] = single oral dose 400 mg ceftibuten
[8] = single oral dose 600 mg ceftibuten
[9] = single oral dose 800 mg ceftibuten

SMILES | terminal half-life ([1]; 400-800 mg ceftibuten oral) | time of peak plasma concentration post-dose ([1]; 400-800 mg ceftibuten oral) | urinary recovery, % of the administered dose ([1]; after multiple doses) | urinary recovery, % of the administered dose ([1]; after single doses) | dose proportionality of exposure (Cmax, AUC0-12, AUC0-∞) [1] | mean maximum plasma concentration [1, 4] | mean maximum plasma concentration [1, 5] | mean maximum plasma concentration [1, 6] | mean maximum plasma concentration [1, 7] | mean maximum plasma concentration [1, 8] | mean maximum plasma concentration [1, 9] | further results
Nc1nc(/C(=C/CC(=O)O)C(=O)N[C@@H]2C(=O)N3C(C(=O)O)=CCS[C@H]23)cs1 (relative stereo) [cis-ceftibuten] | 2.3 to 3.1 h | 2.3 to 3.0 h | 75.8-100% | 59.5-86.9% | increased proportionally | 21.7 µg/mL | 28.1 µg/mL | 38.8 µg/mL | 17.6 µg/mL | 24.1 µg/mL | 28.1 µg/mL | renal clearance ([1]; 400-800 mg ceftibuten oral): 2.9 to 4.2 L/h; total body clearance ([1]; 400-800 mg ceftibuten oral): 3.9 to 5.0 L/h
Nc1nc(/C(=C\CC(=O)O)C(=O)N[C@@H]2C(=O)N3C(C(=O)O)=CCS[C@H]23)cs1 (relative stereo) [trans-ceftibuten] | 3.0 to 3.6 h | 3.3 to 4.8 h | 14.1-16.8% | 9.3-12.5% | increased proportionally | 1.4 µg/mL | 1.9 µg/mL | 2.8 µg/mL | 1.1 µg/mL | 1.5 µg/mL | 2.2 µg/mL | 
O=C([O-])c1c(F)ccc2c1O[B-](O)(O)[C@@H]1C[C@H]21.[Na+].[Na+] [Compound 1] |  |  |  |  |  |  |  |  |  |  |  | % Strains with Compound 1 MPC <= 4 ug/ml ([2]; ceftibuten at 1 μg/ml, strains with Ceftibuten/Compound 1 MIC 0.125 (20 strains)): 90.0%; % Strains with Compound 1 MPC <= 4 ug/ml ([2]; ceftibuten at 1 μg/ml, strains with Ceftibuten/Compound 1 MIC 0.25 (16 strains)): 56.3%; % Strains with Compound 1 MPC <= 4 ug/ml ([2]; ceftibuten at 1 μg/ml, strains with Ceftibuten/Compound 1 MIC 0.5 (14 strains)): 21.4%; % Strains with Compound 1 MPC <= 4 ug/ml ([2]; ceftibuten at 1 μg/ml, strains with Ceftibuten/Compound 1 MIC 1 (12 strains)): 8.3%; % Strains with Compound 1 MPC <= 4 ug/ml ([2]; ceftibuten at 1 μg/ml, strains with Ceftibuten/Compound 1 MIC 2 (7 strains)): 28.6%; % Strains with Compound 1 MPC <= 4 ug/ml ([2]; ceftibuten at 1 μg/ml, strains with Ceftibuten/Compound 1 MIC <=0.06 (30 strains)): 96.7%; % Strains with Compound 1 MPC <= 4 ug/ml ([2]; ceftibuten at 2 μg/ml, strains with Ceftibuten/Compound 1 MIC 0.125 (20 strains)): 95.0%; % Strains with Compound 1 MPC <= 4 ug/ml ([2]; ceftibuten at 2 μg/ml, strains with Ceftibuten/Compound 1 MIC 0.25 (16 strains)): 87.5%; % Strains with Compound 1 MPC <= 4 ug/ml ([2]; ceftibuten at 2 μg/ml, strains with Ceftibuten/Compound 1 MIC 0.5 (14 strains)): 57.1%; % Strains with Compound 1 MPC <= 4 ug/ml ([2]; ceftibuten at 2 μg/ml, strains with Ceftibuten/Compound 1 MIC 1 (12 strains)): 16.7%; % Strains with Compound 1 MPC <= 4 ug/ml ([2]; ceftibuten at 2 μg/ml, strains with Ceftibuten/Compound 1 MIC 2 (7 strains)): 28.6%; % Strains with Compound 1 MPC <= 4 ug/ml ([2]; ceftibuten at 2 μg/ml, strains with Ceftibuten/Compound 1 MIC <=0.06 (30 strains)): 100.0%
Nc1nc(/C(=C/CC(=O)O)C(=O)N[C@@H]2C(=O)N3C(C(=O)O)=CCS[C@H]23)cs1 [ceftibuten] |  |  |  |  |  |  |  |  |  |  |  | frequency of reported TEAEs versus dose ([3]; MAD period, 400-800 mg BID): did not increase with increasing ceftibuten dose; serious, severe, life-threatening TEAEs or TEAEs resulting in death ([3]; SAD and MAD periods): no serious, severe, life-threatening TEAEs, or TEAEs resulting in death; frequency of reported TEAEs versus dose ([3]; SAD period, 400-800 mg): did not increase with increasing ceftibuten dose; ALT elevations ([3]; human, in vivo): incidence and severity of which did not increase with increasing ceftibuten dose; abnormalities in ECG parameters or physical examination ([3]; human, in vivo): no CS abnormalities; number of TEAEs reported ([3]; human, in vivo): 44; severity of TEAEs ([3]; human, in vivo): All TEAEs were mild, regardless of causality, with the exception of 2 TEAEs; vital sign parameters (blood pressure, pulse rate, body temperature, respiratory rate) ([3]; human, in vivo): no trends in changes from Baseline
